Drawing on PubChem BioAssay (NCI), this text covers GI50 and TGI for eight molecules.

Values joined by “and” are separate entries in the source; they are usually repeats but may differ in a detail not shown here. Identical values can stand only once.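 In this assay, cells in 96-well plates receive the compound at five concentrations for 48 hours. Endpoints are linearly interpolated between the surrounding concentrations. Here, GI50 denotes the concentration required for 50% inhibition of growth. TGI is the concentration that stops growth completely.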

Among the test systems are MCF7 breast; M14 melanoma; HOP-62 NSCLC; PC-3 prostate; KM12 colon; BT-549 breast; CAKI-1 renal; 786-0 renal; SW-620 colon; T-47D breast.
What all share (assay): NCI anticancer screen, dose series, 48 h

Regarding `c1ccc(CC(NCCNC(Cc2ccccc2)c2ccccc2)c2ccccc2)cc1` (configuration not stated), the GI50 is 0.311 µM with MCF7 breast; 0.302 µM in the assay with M14 melanoma; 1.17 µM in the assay on HOP-62 NSCLC; 0.409 µM with PC-3 prostate; 0.384 µM in the assay on KM12 colon; 1.26 µM in the assay on BT-549 breast. Also, the GI50 with CAKI-1 renal is 0.456 µM; with 786-0 renal, 0.383 µM; with SW-620 colon, 0.401 µM; with T-47D breast it was 0.243 µM. Also, the TGI in the assay on MCF7 breast was found to be 1.14 µM; with M14 melanoma it was 1.01 µM; in the assay with HOP-62 NSCLC it was 2.86 µM; in the assay on PC-3 prostate, 1.78 µM; in the assay with KM12 colon, 1.52 µM; in the assay with BT-549 breast, 3 µM. Further, the TGI was 2.44 µM with CAKI-1 renal, 1.59 µM in the assay on 786-0 renal, 1.38 µM in the assay on SW-620 colon and 0.693 µM with T-47D breast.

Turning to `C1=C2CNCC3=Cc4ccc5ccccc5c4OC23Oc2c1ccc1ccccc21`, the GI50 is 2.83 µM in the assay on MCF7 breast; 2.17 µM in the assay with M14 melanoma; 4.47 µM in the assay on HOP-62 NSCLC; 3.5 µM in the assay with PC-3 prostate; 3.83 µM in the assay on KM12 colon; 11.3 µM in the assay on BT-549 breast. Further, the GI50 in the assay on CAKI-1 renal was 3.29 µM; in the assay with 786-0 renal, 5.1 µM; with SW-620 colon it was 2.52 µM; with T-47D breast, 8.28 µM. For the same molecule, the TGI amounted to 12.7 µM with MCF7 breast; 5.08 µM in the assay with M14 melanoma; 16.7 µM in the assay with HOP-62 NSCLC; 18.2 µM in the assay with PC-3 prostate; 16.3 µM with KM12 colon; 40.7 µM with BT-549 breast. The TGI was found to be 20.7 µM in the assay on CAKI-1 renal, 31.5 µM in the assay on 786-0 renal, 10.5 µM in the assay with SW-620 colon and 23.2 µM in the assay on T-47D breast.

For the molecule `Cn1cnc([N+](=O)[O-])c1Sc1nc(N)nc2nc[nH]c12`, the GI50 in the assay on MCF7 breast is 2.47 µM; in the assay with M14 melanoma, 1.28 µM; with HOP-62 NSCLC, 1.22 µM; in the assay with PC-3 prostate it was 7.91 µM; in the assay with KM12 colon, 3.94 µM; in the assay on BT-549 breast it was 5.08 µM. The GI50 with CAKI-1 renal is 2.72 µM; in the assay on 786-0 renal it was 2.04 µM; in the assay on SW-620 colon, 7.43 µM; in the assay with T-47D breast, 8.57 µM. Moreover, the TGI with MCF7 breast, with M14 melanoma, in the assay on HOP-62 NSCLC, in the assay on PC-3 prostate, with KM12 colon and in the assay with BT-549 breast was above 100 µM in each case. Further, the TGI in the assay on CAKI-1 renal, in the assay with 786-0 renal, in the assay on SW-620 colon and in the assay on T-47D breast was above 100 µM in each case.

`Cc1ccc(/C=C2\CNC/C(=C\c3ccc(C)cc3)C2=O)cc1`: the TGI in the assay with MCF7 breast was above 100 µM; in the assay with M14 melanoma it was 11.2 µM; in the assay on HOP-62 NSCLC, 9.75 µM and 7.33 µM; with PC-3 prostate, 13.2 µM; with KM12 colon, 1.55 µM and 3.32 µM; with BT-549 breast, 4.28 µM. The TGI with CAKI-1 renal was 4.49 µM and 7.54 µM; in the assay on 786-0 renal, 2.79 µM and 3.89 µM; in the assay with SW-620 colon, 2.11 µM and 8.36 µM; in the assay with T-47D breast it was above 24.8 µM. For the same molecule, the GI50 is 3.26 µM in the assay with HOP-62 NSCLC, 0.399 µM in the assay with KM12 colon, 1.63 µM in the assay with CAKI-1 renal and 0.473 µM in the assay with SW-620 colon.

Turning to `CN(C)CCCN1c2ccccc2Sc2ccc(Cl)cc21`, the GI50 was 3.15 µM and 3.46 µM in the assay with MCF7 breast; 2.03 µM and 2.58 µM in the assay with M14 melanoma; 14.6 µM and 11.7 µM in the assay with HOP-62 NSCLC; 11.9 µM and 4.52 µM in the assay with PC-3 prostate; 4.23 µM and 5.55 µM with KM12 colon; 10.9 µM and 11.2 µM in the assay on BT-549 breast. The GI50 in the assay with CAKI-1 renal was 6.78 µM and 6.91 µM; with 786-0 renal, 3.81 µM and 12 µM; in the assay on SW-620 colon, 3.57 µM and 3.69 µM; in the assay with T-47D breast, 5.92 µM and 8.6 µM. Besides, the TGI is 12.6 µM and 13.7 µM with MCF7 breast; 3.89 µM and 6.18 µM in the assay on M14 melanoma; 28.8 µM and 24.9 µM with HOP-62 NSCLC; 26.3 µM and 17.3 µM in the assay with PC-3 prostate; 14.8 µM and 17.6 µM in the assay with KM12 colon; 23.5 µM and 24.4 µM with BT-549 breast. Also, the TGI in the assay on CAKI-1 renal was 20.7 µM and 20.8 µM; in the assay with 786-0 renal, 14.2 µM and 26.6 µM; with SW-620 colon, 13.7 µM and 14.6 µM; in the assay on T-47D breast, 20 µM and 23.4 µM.

As to `CN(C)CCCC1(c2ccc(F)cc2)OCc2cc(-c3cncc4ccccc34)ccc21` (configuration not stated), the GI50 in the assay on MCF7 breast is 1.89 µM; with M14 melanoma, 1.82 µM; with HOP-62 NSCLC it was 3.8 µM; in the assay with PC-3 prostate, 3.36 µM; in the assay on KM12 colon, 3.41 µM; in the assay on BT-549 breast, 7.45 µM. Moreover, the GI50 in the assay with CAKI-1 renal was 2 µM; in the assay on 786-0 renal, 2.71 µM; in the assay with SW-620 colon, 3.08 µM; with T-47D breast, 2.43 µM. The TGI with MCF7 breast worked out at 4.57 µM; in the assay on M14 melanoma, 3.77 µM; in the assay on HOP-62 NSCLC it was 16.8 µM; with PC-3 prostate, 15 µM; in the assay on KM12 colon it was 12.1 µM; in the assay on BT-549 breast it was 20.5 µM. For the same molecule, the TGI with CAKI-1 renal came out at 5.88 µM; in the assay with 786-0 renal, 9.72 µM; in the assay with SW-620 colon, 11.5 µM; with T-47D breast, 7.28 µM.

In the case of `Cc1cc(NC(=O)NC(=O)c2ccccc2N(C)C)ccc1Oc1ncc(Br)cn1`, the TGI in the assay with MCF7 breast was 29.2 µM; in the assay with M14 melanoma, above 63.1 µM; in the assay with HOP-62 NSCLC, 57.9 µM; with PC-3 prostate, above 63.1 µM; in the assay on KM12 colon, above 38 µM; in the assay on BT-549 breast, above 46.4 µM. In addition, the TGI in the assay on CAKI-1 renal is above 100 µM; with 786-0 renal it was 44.6 µM; in the assay on SW-620 colon it was above 71.1 µM; in the assay with T-47D breast, above 56.2 µM. The GI50 in the assay with M14 melanoma is 0.428 µM; in the assay on CAKI-1 renal, 0.588 µM and 0.402 µM; in the assay with 786-0 renal, 0.322 µM.

As to `Cn1cc(CO)c2ccccc21`, the GI50 with MCF7 breast is 26.9 µM; with M14 melanoma, 31.6 µM; with HOP-62 NSCLC it was 73.8 µM; with PC-3 prostate, 85 µM; in the assay with KM12 colon it was 15.9 µM; with BT-549 breast, 53.7 µM. The GI50 in the assay with CAKI-1 renal was 18.3 µM; with 786-0 renal, above 100 µM; in the assay on SW-620 colon, 19.1 µM; in the assay on T-47D breast it was 62.1 µM. Moreover, the TGI was above 100 µM in the assay with MCF7 breast; above 100 µM in the assay on M14 melanoma; above 100 µM in the assay with HOP-62 NSCLC; above 100 µM with PC-3 prostate; 88.5 µM in the assay on KM12 colon; above 100 µM with BT-549 breast. The TGI with CAKI-1 renal was above 100 µM; in the assay on 786-0 renal, above 100 µM; in the assay with SW-620 colon it was 91.1 µM; in the assay on T-47D breast it was above 100 µM.
